Experimental data reported in patent publication US10131652B2, “Pyrimidinyloxy benzene derivatives as herbicides” (E. I. DU PONT DE NEMOURS AND COMPANY, priority 2014, dated 2018).

Assays:
Assay type in all cases: in vivo
[1] = tested on: ragweed (common ragweed, Ambrosia elatior); experiment: Test B pre-/postemergence plant response
Summary of the method: (§1)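 Steps: plant seeds in loam soil–sand mix; spray soil preemergence, and in parallel spray 2–10 cm one- to two-leaf plants postemergence; hold ~10 days in greenhouse; visually rate injury against untreated controls (0 = no effect, 100 = complete control).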

[2] = tested on: Italian ryegrass (Lolium multiflorum); experiment: Test B pre-/postemergence plant response
Summary of the method: as §1

[3] = tested on: pigweed (Amaranthus retroflexus); experiment: Test B pre-/postemergence plant response
Summary of the method: as §1

[4] = tested on: giant foxtail (Setaria faberii); experiment: Test B pre-/postemergence plant response
Summary of the method: as §1

kochia (Kochia scoparia) = experiment: Test B pre-/postemergence plant response
Summary of the method: as §1

corn (Zea mays) = experiment: Test B pre-/postemergence plant response
Summary of the method: as §1

[5] = tested on: wheat (Triticum aestivum); experiment: Test B pre-/postemergence plant response
Summary of the method: as §1

[6] = tested on: barnyardgrass (Echinochloa crus-galli); experiment: Test B pre-/postemergence plant response
Summary of the method: as §1

[7] = tested on: small-flower umbrella sedge (Cyperus difformis); experiment: Test C flooded paddy test plant response; details: Flood, 250 g ai/ha; scale of 0 to 100 where 0 is no effect and 100 is complete control; 13 to 15 days
Summary of the method: (§2)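 2-leaf plants; flood 3 cm, cpd into paddy water; greenhouse 13–15 d; visual score vs untreated, 0 = no effect, 100 = complete control; dash = no result.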

[8] = tested on: ducksalad (Heteranthera limosa); experiment: Test C flooded paddy test plant response; details: Flood, 250 g ai/ha; scale of 0 to 100 where 0 is no effect and 100 is complete control; 13 to 15 days
Summary of the method: as §2

rice (Oryza sativa) = experiment: Test C flooded paddy test plant response; details: Flood, 250 g ai/ha; scale of 0 to 100 where 0 is no effect and 100 is complete control; 13 to 15 days
Summary of the method: as §2

[9] = tested on: barnyardgrass (Echinochloa crus-galli); experiment: Test C flooded paddy test plant response; details: Flood, 250 g ai/ha; scale of 0 to 100 where 0 is no effect and 100 is complete control; 13 to 15 days
Summary of the method: as §2

[10] = tested on: galium (catchweed bedstraw, Galium aparine); experiment: Test B postemergence plant response
Summary of the method: (§3)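 Visual injury rating, 0–100 (0 = no effect, 100 = complete control), vs untreated controls ~10 days after postemergence spray; greenhouse; potted loam soil/sand; plants 2–10 cm, 1–2 leaf stage.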

[11] = tested on: blackgrass (Alopecurus myosuroides); experiment: Test B postemergence plant response
Summary of the method: as §3

[12] = 125 g ai/ha, postemergence, 0 to 100 scale, 0 no effect, 100 complete control
[13] = Postemergence, 500 g ai/ha, 0 to 100 scale (0 no effect, 100 complete control)
[14] = Preemergence, 125 g ai/ha, 0 to 100 scale (0 no effect, 100 complete control)
[15] = Preemergence, 500 g ai/ha, 0 to 100 scale where 0 is no effect and 100 is complete control
[16] = Postemergence, 1000 g ai/ha, 0 to 100 scale (0 no effect, 100 complete control)
[17] = Preemergence, 1000 g ai/ha, 0 to 100 scale (0 no effect, 100 complete control)
[18] = 31 g ai/ha, Preemergence, 0 to 100 scale where 0 is no effect and 100 is complete control
[19] = Postemergence, 31 g ai/ha, 0 to 100 scale (0 no effect, 100 complete control)

Cc1c(-c2ccccc2Oc2ncc(Cl)cn2)noc1C(F)(F)F [Compound 167]
60: Plant response rating, Kochia (kochia (Kochia scoparia); [13]) | Plant response rating, Galium [10, 13]
30: Plant response rating, Foxtail, Giant [4, 15] | Plant response rating, Kochia (kochia (Kochia scoparia); [15])
10: Plant response rating, Ragweed [1, 15] | Plant response rating, Pigweed [3, 12] | Plant response rating, Foxtail, Giant [4, 13] | Plant response rating, Kochia (kochia (Kochia scoparia); [12]) | Plant response rating, Wheat [5, 12] | Plant response rating, Barnyardgrass [6, 13] | Plant response rating, Barnyardgrass [6, 15] | Plant response rating, Galium [10, 12] | Plant response rating, Blackgrass [11, 13]
0: Plant response rating, Ragweed [1, 12] | Plant response rating, Ragweed [1, 13] | Ragweed plant response rating [1, 14] | Plant response rating, Ryegrass, Italian [2, 12] | Plant response rating, Ryegrass, Italian [2, 13] | Ryegrass, Italian plant response rating [2, 14] | Plant response rating, Ryegrass, Italian [2, 15] | Pigweed plant response rating [3, 14] | Plant response rating, Foxtail, Giant [4, 12] | Foxtail, Giant plant response rating [4, 14] | Kochia plant response rating (kochia (Kochia scoparia); [14]) | Plant response rating, Corn (corn (Zea mays); [12]) | Plant response rating, Barnyardgrass [6, 12] | Barnyardgrass plant response rating [6, 14] | Sedge, Umbrella plant response rating [7] | Ducksalad plant response rating [8] | Rice plant response rating (rice (Oryza sativa)) | Barnyardgrass plant response rating [9] | Plant response rating, Blackgrass [11, 12]
70: Plant response rating, Pigweed [3, 13]
20: Plant response rating, Pigweed [3, 15] | Plant response rating, Corn (corn (Zea mays); [13]) | Plant response rating, Wheat [5, 13]

Cc1cc(-c2ccccc2Oc2ncc(Cl)cn2)sn1 [Compound 171]
80: Plant response rating, Blackgrass [11, 16]
30: Plant response rating, Ragweed [1, 16] | Plant response rating, Wheat [5, 16] | Plant response rating, Barnyardgrass [6, 16]
0: Plant response rating, Ragweed [1, 17] | Sedge, Umbrella plant response rating [7] | Ducksalad plant response rating [8] | Rice plant response rating (rice (Oryza sativa)) | Barnyardgrass plant response rating [9]
70: Plant response rating, Barnyardgrass [6, 17]
90: Plant response rating, Kochia (kochia (Kochia scoparia); [17])
10: Plant response rating, Ryegrass, Italian [2, 16] | Plant response rating, Ryegrass, Italian [2, 17] | Plant response rating, Corn (corn (Zea mays); [16])
100: Plant response rating, Pigweed [3, 16] | Plant response rating, Pigweed [3, 17] | Plant response rating, Foxtail, Giant [4, 16] | Plant response rating, Foxtail, Giant [4, 17] | Plant response rating, Kochia (kochia (Kochia scoparia); [16]) | Plant response rating, Galium [10, 16]

Cc1cnc(Oc2ccccc2-c2cc(C(C)(F)F)on2)nc1 [Compound 173]
60: Plant response rating, Ragweed [1, 12] | Plant response rating, Pigweed [3, 19] | Plant response rating, Barnyardgrass [6, 18] | Sedge, Umbrella plant response rating [7]
10: Plant response rating, Ragweed [1, 18] | Plant response rating, Corn (corn (Zea mays); [19])
40: Plant response rating, Ragweed [1, 19] | Plant response rating, Corn (corn (Zea mays); [12])
100: Pigweed plant response rating [3, 14] | Foxtail, Giant plant response rating [4, 14] | Plant response rating, Kochia (kochia (Kochia scoparia); [12]) | Kochia plant response rating (kochia (Kochia scoparia); [14])
30: Plant response rating, Foxtail, Giant [4, 19] | Plant response rating, Barnyardgrass [6, 19] | Plant response rating, Blackgrass [11, 19]
20: Plant response rating, Ryegrass, Italian [2, 12] | Ryegrass, Italian plant response rating [2, 14]
70: Ragweed plant response rating [1, 14] | Plant response rating, Kochia (kochia (Kochia scoparia); [18]) | Plant response rating, Kochia (kochia (Kochia scoparia); [19]) | Plant response rating, Barnyardgrass [6, 12] | Plant response rating, Blackgrass [11, 12]
0: Plant response rating, Ryegrass, Italian [2, 18] | Plant response rating, Ryegrass, Italian [2, 19] | Plant response rating, Wheat [5, 12] | Plant response rating, Wheat [5, 19] | Rice plant response rating (rice (Oryza sativa)) | Barnyardgrass plant response rating [9]
90: Plant response rating, Foxtail, Giant [4, 12] | Barnyardgrass plant response rating [6, 14] | Plant response rating, Galium [10, 12]
80: Plant response rating, Pigweed [3, 18] | Plant response rating, Pigweed [3, 12] | Ducksalad plant response rating [8]
50: Plant response rating, Foxtail, Giant [4, 18] | Plant response rating, Galium [10, 19]

Clc1cnc(Oc2ccccc2-c2cc(Cl)ccn2)nc1 [Compound 174]
10: Plant response rating, Barnyardgrass [6, 12]
70: Plant response rating, Kochia (kochia (Kochia scoparia); [12]) | Plant response rating, Galium [10, 12]
50: Plant response rating, Pigweed [3, 12] | Plant response rating, Pigweed [3, 19] | Plant response rating, Blackgrass [11, 12]
40: Foxtail, Giant plant response rating [4, 14] | Plant response rating, Blackgrass [11, 19]
80: Pigweed plant response rating [3, 14]
20: Plant response rating, Ragweed [1, 19]
60: Plant response rating, Pigweed [3, 18] | Plant response rating, Kochia (kochia (Kochia scoparia); [19]) | Plant response rating, Galium [10, 19]
0: Plant response rating, Ragweed [1, 18] | Ragweed plant response rating [1, 14] | Plant response rating, Ryegrass, Italian [2, 18] | Plant response rating, Ryegrass, Italian [2, 12] | Plant response rating, Ryegrass, Italian [2, 19] | Ryegrass, Italian plant response rating [2, 14] | Plant response rating, Foxtail, Giant [4, 18] | Plant response rating, Foxtail, Giant [4, 12] | Plant response rating, Foxtail, Giant [4, 19] | Kochia plant response rating (kochia (Kochia scoparia); [14]) | Plant response rating, Corn (corn (Zea mays); [12]) | Plant response rating, Corn (corn (Zea mays); [19]) | Plant response rating, Wheat [5, 12] | Plant response rating, Wheat [5, 19] | Plant response rating, Barnyardgrass [6, 18] | Plant response rating, Barnyardgrass [6, 19] | Barnyardgrass plant response rating [6, 14] | Sedge, Umbrella plant response rating [7] | Ducksalad plant response rating [8] | Rice plant response rating (rice (Oryza sativa)) | Barnyardgrass plant response rating [9]
30: Plant response rating, Ragweed [1, 12]

Fc1ccnc(-c2ccccc2Oc2ncc(Cl)cn2)c1 [Compound 175]
40: Plant response rating, Galium [10, 12]
30: Plant response rating, Ragweed [1, 12] | Plant response rating, Kochia (kochia (Kochia scoparia); [12])
10: Plant response rating, Barnyardgrass [6, 12]
0: Plant response rating, Ragweed [1, 18] | Ragweed plant response rating [1, 14] | Plant response rating, Ryegrass, Italian [2, 18] | Plant response rating, Ryegrass, Italian [2, 12] | Plant response rating, Ryegrass, Italian [2, 19] | Ryegrass, Italian plant response rating [2, 14] | Plant response rating, Pigweed [3, 18] | Plant response rating, Foxtail, Giant [4, 18] | Plant response rating, Foxtail, Giant [4, 12] | Plant response rating, Foxtail, Giant [4, 19] | Foxtail, Giant plant response rating [4, 14] | Plant response rating, Kochia (kochia (Kochia scoparia); [18]) | Plant response rating, Kochia (kochia (Kochia scoparia); [19]) | Kochia plant response rating (kochia (Kochia scoparia); [14]) | Plant response rating, Corn (corn (Zea mays); [12]) | Plant response rating, Corn (corn (Zea mays); [19]) | Plant response rating, Wheat [5, 12] | Plant response rating, Wheat [5, 19] | Plant response rating, Barnyardgrass [6, 18] | Plant response rating, Barnyardgrass [6, 19] | Barnyardgrass plant response rating [6, 14] | Sedge, Umbrella plant response rating [7] | Ducksalad plant response rating [8] | Rice plant response rating (rice (Oryza sativa)) | Barnyardgrass plant response rating [9] | Plant response rating, Blackgrass [11, 12] | Plant response rating, Blackgrass [11, 19]
20: Plant response rating, Ragweed [1, 19] | Plant response rating, Galium [10, 19]
50: Plant response rating, Pigweed [3, 19]
70: Pigweed plant response rating [3, 14]
60: Plant response rating, Pigweed [3, 12]

FC(F)(F)COc1cc(-c2ccccc2Oc2ncc(Cl)cn2)on1 [Compound 176]
20: Plant response rating, Ragweed [1, 12] | Plant response rating, Foxtail, Giant [4, 19] | Kochia plant response rating (kochia (Kochia scoparia); [14])
90: Plant response rating, Pigweed [3, 19] | Pigweed plant response rating [3, 14] | Foxtail, Giant plant response rating [4, 14] | Plant response rating, Galium [10, 12]
75: Ducksalad plant response rating [8]
60: Plant response rating, Foxtail, Giant [4, 18]
50: Plant response rating, Foxtail, Giant [4, 12] | Barnyardgrass plant response rating [6, 14]
100: Plant response rating, Pigweed [3, 12] | Plant response rating, Kochia (kochia (Kochia scoparia); [12])
0: Plant response rating, Ragweed [1, 18] | Ragweed plant response rating [1, 14] | Plant response rating, Ryegrass, Italian [2, 18] | Plant response rating, Ryegrass, Italian [2, 19] | Plant response rating, Kochia (kochia (Kochia scoparia); [18]) | Plant response rating, Wheat [5, 12] | Plant response rating, Wheat [5, 19] | Rice plant response rating (rice (Oryza sativa)) | Barnyardgrass plant response rating [9] | Plant response rating, Blackgrass [11, 19]
30: Plant response rating, Pigweed [3, 18] | Plant response rating, Kochia (kochia (Kochia scoparia); [19]) | Plant response rating, Corn (corn (Zea mays); [12]) | Plant response rating, Barnyardgrass [6, 12] | Sedge, Umbrella plant response rating [7] | Plant response rating, Galium [10, 19] | Plant response rating, Blackgrass [11, 12]
10: Plant response rating, Ragweed [1, 19] | Plant response rating, Ryegrass, Italian [2, 12] | Ryegrass, Italian plant response rating [2, 14] | Plant response rating, Corn (corn (Zea mays); [19]) | Plant response rating, Barnyardgrass [6, 18] | Plant response rating, Barnyardgrass [6, 19]
